According to patent US10508085B2, “Compounds and methods for IDO and TDO modulation, and indications therefor” (Plexxikon Inc., priority 2016, dated 2019):

Legend:
[1] = molecular target: T1, human IDO (IDO1-expressing HEK293 cells) (Homo sapiens, UniProt P14902); test: Cell based kynurenine assay, IDO1-expressing HEK293 cell clones; conditions: IDO1-expressing HEK293 cells, 24 hours incubation; geometric mean; read-out: HEK293 IDO1 Kynurenine GMean IC50 (μM) (Cellular Assay)
T1 construct: expressed in transfected cells
Summary of the method: (§1)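 Steps: seed IDO1- or TDO-expressing HEK293 cells at 2.5×10^4 per well; add compound dilutions; incubate 24 h; transfer supernatant and determine kynurenine; derive IC50 via nonlinear regression of percent inhibition.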

[2] = molecular target: T2, Human Tryptophan 2,3-dioxygenase (TDO) (Homo sapiens, UniProt P48775); test: Human TDO enzymatic assay (kynurenine level); assay type: biochemical; conditions: 1 nM TDO, 350 μM L-Trp; geometric mean; read-out: TDO GMean: IC50 (μM) (Biochemical Assay)
T2 construct: His tag (N); made in house; host or cells: E. coli
Summary of the method: (§2)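 IDO conditions: 6 nM His-IDO, 10 μM L-Trp, 5 μM methylene blue, 20 min, RT. TDO conditions: 1 nM His-TDO, 350 μM L-Trp, 0.4 μM methylene blue, 70 min, RT. Both used pH 6.5 phosphate plus ascorbate/catalase, TCA stop at 50° C, kynurenine readout, nonlinear-regression IC50.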

[3] = molecular target: T3, Human Indoleamine 2,3-dioxygenase (IDO) (Homo sapiens, UniProt P14902); test: Human IDO enzymatic assay (kynurenine level); assay type: biochemical; conditions: 6 nM IDO, 10 μM L-Trp; geometric mean; read-out: IDO1 GMean: IC50 (μM) (Biochemical Assay)
T3 construct: His tag (N); made in house; host or cells: E. coli
Summary of the method: as §2

[4] = molecular target: T4, human TDO (TDO-expressing HEK293 cells) (Homo sapiens, UniProt P48775); test: Cell based kynurenine assay, TDO-expressing HEK293 cell clones; conditions: TDO-expressing HEK293 cells, 24 hours incubation; geometric mean; read-out: HEK293 TDO Kynurenine GMean IC50 (μM) (Cellular Assay)
T4 construct: expressed in transfected cells
Summary of the method: as §1

T1 sequence (P14902 whole entry): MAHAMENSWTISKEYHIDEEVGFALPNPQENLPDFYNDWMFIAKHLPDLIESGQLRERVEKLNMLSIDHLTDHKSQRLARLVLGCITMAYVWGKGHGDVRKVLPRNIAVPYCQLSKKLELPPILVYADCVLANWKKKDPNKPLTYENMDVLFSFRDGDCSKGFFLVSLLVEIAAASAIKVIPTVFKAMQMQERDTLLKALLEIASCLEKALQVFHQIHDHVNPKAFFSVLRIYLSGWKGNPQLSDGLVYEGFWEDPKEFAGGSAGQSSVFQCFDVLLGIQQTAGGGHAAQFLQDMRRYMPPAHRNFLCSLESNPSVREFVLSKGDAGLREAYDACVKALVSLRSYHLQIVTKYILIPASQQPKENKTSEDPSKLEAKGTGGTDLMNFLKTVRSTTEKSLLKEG
T3 sequence (P14902 whole entry): as above
T2 sequence (P48775 whole entry): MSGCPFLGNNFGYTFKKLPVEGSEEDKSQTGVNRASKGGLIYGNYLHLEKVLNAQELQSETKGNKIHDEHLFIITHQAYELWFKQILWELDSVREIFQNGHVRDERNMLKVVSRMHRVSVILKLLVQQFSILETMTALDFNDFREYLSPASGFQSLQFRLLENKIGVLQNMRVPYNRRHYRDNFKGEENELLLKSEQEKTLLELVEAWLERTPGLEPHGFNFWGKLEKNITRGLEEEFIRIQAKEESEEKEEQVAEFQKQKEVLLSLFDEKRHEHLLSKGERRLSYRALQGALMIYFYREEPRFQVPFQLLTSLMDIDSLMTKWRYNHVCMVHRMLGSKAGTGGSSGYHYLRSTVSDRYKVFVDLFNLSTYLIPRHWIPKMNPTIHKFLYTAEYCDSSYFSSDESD
T4 sequence (P48775 whole entry): as above

| SMILES | IC50 [1] [µM] | IC50 [2] [µM] | IC50 [3] [µM] | IC50 [4] [µM] |
| --- | --- | --- | --- | --- |
| CC(C)(CN1CCCC1)C(O)c1cc(Cl)cc2cn[nH]c12 (stereo not drawn) [Compound P-0202, 1-(5-chloro-1H-indazol-7-yl)-2,2-dimethyl-3-(pyrrolidin-1-yl)propan-l-ol] | > 10 | 0.0001 to 10 | 10 to 100 | > 10 |
| OC(c1cc(Cl)cc2cn[nH]c12)C(C1CCC1)C1CCC1 (centres unmarked) [Compound P-0203, 1-(5-chloro-1H-indazol-7-yl)-2,2-dicyclobutylethan-1-ol] | 0.0001 to 10 | 0.0001 to 10 | 0.0001 to 10 | 0.0001 to 10 |
| OC(c1cc(Cl)cc2cn[nH]c12)C(C1CC1)C1CC1 (centres unmarked) [Compound P-0204, 1-(5-chloro-1H-indazol-7-yl)-2,2-dicyclopropylethan-1-ol] | 0.0001 to 10 | 0.0001 to 10 | 0.0001 to 10 | 0.0001 to 10 |
| OC1(c2cc(Cl)cc3cn[nH]c23)CCC1 [Compound P-0206, 1-(5-chloro-1H-indazol-7-yl)cyclobutan-1-ol] | > 10 | 10 to 100 | 10 to 100 | 0.0001 to 10 |
| OC(c1cc(Cl)cc2cn[nH]c12)C12CCC(CC1)CC2 (centres unmarked) [Compound P-0208, bicyclo[2.2.2]octan-1-yl(5-chloro-1H-indazol-7-yl)methanol] | 0.0001 to 10 | 0.0001 to 10 | 0.0001 to 10 | 0.0001 to 10 |
| CC1(C(O)c2cc(Cl)cc3cn[nH]c23)COC1 (centres unmarked) [Compound P-0211, (5-chloro-1H-indazol-7-yl)(3-methyloxetan-3-yl)methanol] | 0.0001 to 10 | 0.0001 to 10 | 0.0001 to 10 | 0.0001 to 10 |
| CC(C)(C)C(O)c1cc(Cl)cc2cn[nH]c12 (centres unmarked) [Compound P-0212, 1-(5-chloro-1H-indazol-7-yl)-2,2-dimethylpropan-1-ol] | 0.0001 to 10 | 0.0001 to 10 | 0.0001 to 10 | 0.0001 to 10 |
| CC(C)(CCC#N)C(O)c1cc(Cl)cc2cn[nH]c12 (centres unmarked) [Compound P-0213, 5-(5-chloro-1H-indazol-7-yl)-5-hydroxy-4,4-dimethylpentanenitrile] | 0.0001 to 10 | 0.0001 to 10 | 0.0001 to 10 | 0.0001 to 10 |
| CC(C)(C)C1CC(O)(c2cc(Cl)cc3cn[nH]c23)C1 (centres unmarked) [Compound P-0214, 3-(tert-butyl)-1-(5-chloro-1H-indazol-7-yl)cyclobutan-1-ol] | 0.0001 to 10 | 0.0001 to 10 | 0.0001 to 10 | 0.0001 to 10 |
| CC(C)(C(O)c1cc(Cl)cc2cn[nH]c12)N1CCOCC1 (centres unmarked) [Compound P-0215, 1-(5-chloro-1H-indazol-7-yl)-2-methyl-2-morpholinopropan-1-ol] | 0.0001 to 10 | 0.0001 to 10 | 0.0001 to 10 | 0.0001 to 10 |
| CC(C)(C1CCOCC1)C(O)c1cc(Cl)c(F)c2cn[nH]c12 (centres unmarked) [Compound P-0217, 1-(5-chloro-4-fluoro-1H-indazol-7-yl)-2-methyl-2-(tetrahydro-2H-pyran-4-yl)propan-1-ol] | 0.0001 to 10 | 0.0001 to 10 | 0.0001 to 10 | 0.0001 to 10 |
| OC(c1cc(Cl)cc2cn[nH]c12)C1(C2CCOCC2)CC1 (centres unmarked) [Compound P-0221, (5-chloro-1H-indazol-7-yl)(1-(tetrahydro-2H-pyran-4-yl)cyclopropyl)methanol] | 0.0001 to 10 | 0.0001 to 10 | 0.0001 to 10 | 0.0001 to 10 |
| CC(F)(F)C1(C(C)(F)F)CC(O)(c2cc(Cl)cc3cn[nH]c23)C1 [Compound P-0222, 1-(5-chloro-1H-indazol-7-yl)-3,3-bis(1,1-difluoroethyl)cyclobutan-1-ol] | 0.0001 to 10 | 0.0001 to 10 | 0.0001 to 10 | 0.0001 to 10 |
| OC(c1cc(Cl)cc2cn[nH]c12)C1(C2CC2)CC1 (centres unmarked) [Compound P-0225, [1,1′-bi(cyclopropan)]-1-yl(5-chloro-1H-indazol-7-yl)methanol] | 0.0001 to 10 | 0.0001 to 10 | 0.0001 to 10 | 0.0001 to 10 |
| CS(=O)(=O)N1CC(C(O)c2cc(Cl)cc3cn[nH]c23)C1 (centres unmarked) [Compound P-0226, (5-chloro-1H-indazol-7-yl)(1-(methylsulfonyl)azetidin-3-yl)methanol] | 0.0001 to 10 | 0.0001 to 10 | 0.0001 to 10 | > 10 |
| OC(c1cc(Cl)cc2cn[nH]c12)C12CCC(F)(CC1)CC2 (centres unmarked) [Compound P-0227, (5-chloro-1H-indazol-7-yl)(4-fluorobicyclo[2.2.2]octan-1-yl)methanol] | 0.0001 to 10 | 0.0001 to 10 | 0.0001 to 10 | 0.0001 to 10 |
| CC1(C(O)c2cc(Cl)cc3cn[nH]c23)CC2CC2C1 (centres unmarked) [Compound P-0228, (5-chloro-1H-indazol-7-yl)(3-methylbicyclo[3.1.0]hexan-3-yl)methanol] | 0.0001 to 10 | 0.0001 to 10 | 0.0001 to 10 | 0.0001 to 10 |
| OC(c1cc(Cl)cc2cn[nH]c12)C12CCC(CC1)C2 (centres unmarked) [Compound P-0229, bicyclo[2.2.1]heptan-1-yl(5-chloro-1H-indazol-7-yl)methanol] | 0.0001 to 10 | 0.0001 to 10 | 0.0001 to 10 | 0.0001 to 10 |
| CC(C)(N)CC(O)c1cc(Cl)cc2cn[nH]c12 (centres unmarked) [Compound P-0233, 3-amino-1-(5-chloro-1H-indazol-7-yl)-3-methylbutan-1-ol] | > 10 | 10 to 100 | 10 to 100 | > 10 |

The next lines start with the values.

| IC50 [1] [µM] | IC50 [2] [µM] | IC50 [3] [µM] | IC50 [4] [µM] | SMILES |
| --- | --- | --- | --- | --- |
| > 10 | 10 to 100 | 10 to 100 | 0.0001 to 10 | CC(O)(c1cc(Cl)cc2cn[nH]c12)C1CCCC1 (centres unmarked) [Compound P-0205, 1-(5-chloro-1H-indazol-7-yl)-1-cyclopentylethan-1-ol] |
| 0.0001 to 10 | 10 to 100 | 0.0001 to 10 | 0.0001 to 10 | CC1(C(O)c2c(Cl)ccc3cn[nH]c23)CCCCC1 (centres unmarked) [Compound P-0207, (6-chloro-1H-indazol-7-yl)(1-methylcyclohexyl)methanol] |
| 0.0001 to 10 | 0.0001 to 10 | 0.0001 to 10 | 0.0001 to 10 | OC(c1cc(Cl)cc2cn[nH]c12)C12CC(C1)C2 (centres unmarked) [Compound P-0209, bicyclo[1.1.1]pentan-1-yl(5-chloro-1H-indazol-7-yl)methanol] |
| 0.0001 to 10 | 0.0001 to 10 | 0.0001 to 10 | 0.0001 to 10 | OC(CC1CCOCC1)c1cc(Cl)cc2cn[nH]c12 (centres unmarked) [Compound P-0210, 1-(5-chloro-1H-indazol-7-yl)-2-(tetrahydro-2H-pyran-4-yl)ethan-1-ol] |
| > 10 | 10 to 100 | > 200 | > 10 | CC(C)(C(O)c1cc(Cl)cc2cn[nH]c12)N1CCCCC1 (centres unmarked) [Compound P-0216, 1-(5-chloro-1H-indazol-7-yl)-2-methyl-2-(piperidin-1-yl)propan-1-ol] |
| 0.0001 to 10 | 0.0001 to 10 | 0.0001 to 10 | 0.0001 to 10 | OC(c1cc(Cl)c(F)c2cn[nH]c12)C(F)(F)C1CCOCC1 (centres unmarked) [Compound P-0218, 1-(5-chloro-4-fluoro-1H-indazol-7-yl)-2,2-difluoro-2-(tetrahydro-2H-pyran-4-yl)ethan-1-ol] |
| > 10 | 0.0001 to 10 | 10 to 100 | > 10 | O=C(O)C1CCC(C(O)c2cc(Cl)cc3cn[nH]c23)CC1 (centres unmarked) [Compound P-0219, 4-((5-chloro-1H-indazol-7-yl)(hydroxy)methyl)cyclohexane-1-carboxylic acid] |
| 0.0001 to 10 | 0.0001 to 10 | 0.0001 to 10 | 0.0001 to 10 | CC(C)(C1CCOCC1)C(O)c1c(Cl)c(Cl)cc2cn[nH]c12 (centres unmarked) [Compound P-0220, 1-(5,6-dichloro-1H-indazol-7-yl)-2-methyl-2-(tetrahydro-2H-pyran-4-yl)propan-1-ol] |
| 0.0001 to 10 | 0.0001 to 10 | 0.0001 to 10 | 0.0001 to 10 | CCC1(C(O)c2cc(Cl)cc3cn[nH]c23)CCC1 (centres unmarked) [Compound P-0223, (5-chloro-1H-indazol-7-yl)(1-ethylcyclobutyl)methanol] |
| 0.0001 to 10 | 0.0001 to 10 | 0.0001 to 10 | 0.0001 to 10 | CC(C)(C1CC1)C(O)c1cc(Cl)cc2cn[nH]c12 (centres unmarked) [Compound P-0224, 1-(5-chloro-1H-indazol-7-yl)-2-cyclopropyl-2-methylpropan-1-ol] |
| > 10 | 10 to 100 | 10 to 100 | > 10 | CN(C)C(C)(C)C(O)c1cc(Cl)cc2cn[nH]c12 (centres unmarked) [Compound P-0230, 1-(5-chloro-1H-indazol-7-yl)-2-(dimethylamino)-2-methylpropan-1-ol] |
| > 10 | 10 to 100 | 100 to 200 | > 10 | CC(C)(C(O)c1cc(Cl)cc2cn[nH]c12)N1CCCC1 (centres unmarked) [Compound P-0231, 1-(5-chloro-1H-indazol-7-yl)-2-methyl-2-(pyrrolidin-1-yl)propan-1-ol] |
| 0.0001 to 10 | 0.0001 to 10 | 0.0001 to 10 | 0.0001 to 10 | CC(C)(C1CCOCC1)C(O)c1c(F)c(Cl)cc2cn[nH]c12 (centres unmarked) [Compound P-0232, 1-(5-chloro-6-fluoro-1H-indazol-7-yl)-2-methyl-2-(tetrahydro-2H-pyran-4-yl)propan-1-ol] |
